Experimental data published in paper PMC12264943, “Identification of New Human P2X7 Antagonists Using Ligand- and Structure-Based Virtual Screening” (Journal of Chemical Information and Modeling, 2025).
Entries after “also recorded” stand apart in the source; their conditions may differ. One block for each compound: values may come before it.

Legend:
Assay type in all cases: cell-based
[1] = target: T1, hP2X7 (Homo sapiens, UniProt Q99572); assay: YO-PRO 1 dye uptake assay, HEK-293 cells stably transfected with hP2X7; conditions: for hP2X7 inhibition in YO-PRO 1 dye uptake, SAR / reduction of hP2X7 activity: analogues at 10 μM; for hP2X7 inhibition in YO-PRO 1 dye uptake, SAR: 1 mM ATP; for reduction of hP2X7 activity: YO-PRO 1, 1 mM ATP, 0.1% DMSO; for IC50: Table 1, table names no assay, values of 2 and 9 are from YO-PRO 1 dye uptake in hP2X7 HEK-293 cells, read-out: IC50
T1 construct: expressed in transfected cells; host or cells: HEK-293, stably transfected (gift of E. Adinolfi's group, Ferrara University)
T1 sequence (Q99572 1-595): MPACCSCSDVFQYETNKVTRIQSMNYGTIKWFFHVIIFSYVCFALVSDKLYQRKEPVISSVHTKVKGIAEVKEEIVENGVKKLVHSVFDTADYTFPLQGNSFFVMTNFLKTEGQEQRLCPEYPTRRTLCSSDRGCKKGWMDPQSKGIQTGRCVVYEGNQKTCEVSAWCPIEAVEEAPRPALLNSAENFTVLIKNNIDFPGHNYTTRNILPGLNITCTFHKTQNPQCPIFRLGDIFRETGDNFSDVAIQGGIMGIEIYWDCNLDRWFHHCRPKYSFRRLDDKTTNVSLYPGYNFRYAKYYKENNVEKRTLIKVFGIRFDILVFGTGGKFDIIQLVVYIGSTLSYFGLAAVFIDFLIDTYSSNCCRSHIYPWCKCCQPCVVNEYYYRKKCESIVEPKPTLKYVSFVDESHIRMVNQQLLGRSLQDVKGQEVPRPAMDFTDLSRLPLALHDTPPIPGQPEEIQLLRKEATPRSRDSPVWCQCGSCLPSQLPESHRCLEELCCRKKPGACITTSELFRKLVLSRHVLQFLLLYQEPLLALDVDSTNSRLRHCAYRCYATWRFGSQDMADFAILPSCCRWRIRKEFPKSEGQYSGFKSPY
Description: (§1) Astrocytoma 1321 N1 (established by Dr. Gaia Pasqualetto) and HEK-293 (kindly gifted by E. Adinolfi’s group, Ferrara University) both stably transfected with hP2X7, were used to assess the activity of the small molecules selected from the VS. Cells were maintained in DMEM:F12 (PanBiotech) supplemented with 10% FBS, 1% pen-strep, and 150 μg/mL G418 (PanBiotech).
(§2) Astrocytoma 1321 N1 cells (2–2.5 × 10^4 cells/well) and HEK-293 cells (4–5 × 10^4 cells/well) expressing hP2X7 were seeded in poly-L-lysine-coated 96-well plates (Sarstedt) 24 h before the experiment. YO-PRO 1 dye was prepared at 5 μM in extracellular solution with low divalent cations (ECS-LD) buffer (147 mM NaCl, 10 mM HEPES, 13 mM glucose, 0.2 mM CaCl2, 2 mM KCl, pH 7.4) and added to cells after washing them with Dulbecco’s phosphate- buffered saline (DPBS) (PanBiotech) and incubated for 20 min at 37 °C. ATP-induced dye uptake, mediated by hP2X7 activation, was monitored using a Clariostar plate reader (excitation: 485 nm; emission: 538 nm) for 30 cycles (75–150 s/cycle), after recording the baseline for five cycles. hP2X7 activation was quantified at cycle 10 by calculating the fluorescence intensity (FI) ratio (Δ(Fcycle 10–F cycle 1)/cycle time).
Compounds 2 and 9, identified as hits, were further evaluated for concentration-dependent inhibition (IC50) of hP2X7 activation in the YO-PRO 1 dye uptake assay using HEK-293 cells stably transfected with hP2X7 (unfortunately, at this point in the study, the stably transfected 1321N1 cells lost P2X7 expression, and we were unable to recover them from frozen aliquots), for which the ATP EC50 was determined to be approximately 1 mM (Supporting material Figure 4C). Seven concentrations (100 to 0.03 μM) were tested, but due to precipitation at 100 μM, the DMSO concentration was increased to 1%.
3 Inhibitory concentration response evaluation of compounds 2 and 9 and their groups highlighted for SAR. […] Compound activity was evaluated along a time of 20 min (75 s per cycle) after ATP addition (700 μM). The fluorescence intensity (FI) values of the first 10 cycles were considered for assessing their ability to inhibit hP2X7. The curves represent three biological replicates (n = 4 per replicate). Data were normalized by setting as 100% the FI recorded by hP2X7 HEK-293 cells incubated in 1% DMSO and stimulated by ATP, and as 0% the FI recorded by the same cells but treated with ECS-LD (assay buffer). (C) Highlighted areas of compound 2 considered for SAR study. R1 refers to the ethyl-benzyl group of the molecules, and R2 and R3 refer to the benzo-(1,3)-dioxol groups. (D) Highlighted areas of compound 9 considered for SAR study. We have defined the area highlighted in yellow and numbered as 1 as the “front” region of the molecule and the one colored in pink and named as 2 as the “back” region of the molecule. L highlights the urea and amide linkers of compounds 2 and 9, respectively.
(§3) 4 Evaluation of compound 2 and 9 analogue activity using YO-PRO 1 and MPR assays. The activity of compound 2 (A and B) and 9 (C and D) analogues was evaluated in YO-PRO 1 (A and C) and MPR (B and D) assays. The compounds were tested at 10 μM and preincubated for either 20 (YO-PRO 1) or 30 min (MPR). The baseline was recorded for 5 cycles before ATP treatment (1 mM). Fluorescence was recorded for 25 (YO-PRO 1) or 5 min (MPR). The data were normalized by setting as 100% for the fluorescence measured from hP2X7 HEK-293 cells incubated with vehicle (0.1% DMSO) and treated with 1 mM ATP and 0% for the fluorescence recorded by the cells not treated with ATP. The data shown correspond to three independent biological replicates (3 technical replicates per experiment; error bars represent the SEM from the mean values of each biological replicate (n = 3)). The statistical analysis was performed with one-way Anova using Dunnett’s function (P**** < 0.0001; P*** < 0.0003; P** < 0.002; P* < 0.02).

[2] = target: T1, hP2X7; assay: Membrane Potential Red (MPR) dye assay, HEK-293 cells stably transfected with hP2X7; conditions: 10 μM, 1 mM ATP, hP2X7 HEK-293
Description: as §1
(§4) Cells were plated as described for the YO-PRO 1 dye uptake assay. MPR dye (Molecular Devices) was prepared following the manufacturer’s protocol and diluted 1:10 in ECS-LD buffer. After washing with DPBS, cells were incubated with the dye for 30 min at 37 °C. Fluorescence changes (excitation: 525 nm; emission: 560 nm) were recorded using a Clariostar plate reader during ATP-induced membrane depolarization. Baseline fluorescence was recorded for 5 cycles, and ATP was added via an automated injector (10 μL). Membrane depolarization was quantified as the ratio of the maximal fluorescence change over baseline intensity (Δ(F max–F0)/F0)).
as §3

[3] = target: T1, hP2X7; assay: YO-PRO 1 dye uptake assay, 1321 N1 cells stably transfected with hP2X7; conditions: compound 30 μM, 700 μM ATP; for reduction of P2X7 activation: 0.3% DMSO
Description: as §1, §2
The P2X7 receptor, besides being a ligand-gated ion channel, forms large membrane pores following prolonged exposure to high concentrations of ATP, leading to apoptosis (Mackenzie et al. 2005). The YO-PRO 1 dye uptake assay, which measures dye influx through these pores, was selected as the primary screen. The fluorescence of YO-PRO 1 increases when it binds to DNA, enabling real-time monitoring of P2X7 activation (calculated as the rate of increase in fluorescence as YO-PRO 1 binds nuclear DNA).
The screening compounds were tested at 30 μM (0.3% DMSO) in 5 μM YO-PRO 1 dye diluted in freshly prepared ECS-LD buffer. Cells pretreated with the screening compounds were challenged with 700 μM ATP, and the fluorescence intensities were recorded. The negative control consisted of cells treated with 0.3% DMSO, while the positive control was 0.1 μM JNJ47965567, a selective P2X7 antagonist. ,
(§5) 2 Initial screening assays to identify hit compounds. (A) The compounds were screened at 30 μM in the YO-PRO 1 dye uptake using 1321 N1 cells stably transfected with hP2X7. Compound activity was evaluated along a time of 20 min (75 s per cycle) after ATP addition (700 μM). The fluorescence intensity (FI) values of the first 10 cycles were considered for assessing their ability to inhibit hP2X7. Compound responses were normalized to the fluorescent signal recorded on 0.3% DMSO cells treated with 700 μM ATP of each plate. […] (B) Compounds screened at 10 μM using MPR using 1321 N1 cells stably transfected with hP2X7. The compound activity was evaluated for 5 min after ATP addition (15 s per cycle). The fluorescence intensity recorded in the first cycles (before reaching a plateau response) was considered for assessing the small molecule’s ability to inhibit hP2X7. Compound responses were normalized to the fluorescence signal recorded on 0.1% DMSO cells treated with 700 μM ATP of each plate. […] One-way ANOVA and Dunnet test were used for statistical analysis (****P < 0.0001), (*P < 0.02).

[4] = target: T1, hP2X7; assay: Membrane Potential Red (MPR) dye assay, 1321 N1 cells stably transfected with hP2X7; conditions: P2X7; compound 10 μM, 700 μM ATP
Description: as §1, §4
as §5, with “0.02). […]” for “0.02).”

[5] = target: T1, hP2X7; assay: as above; conditions: compound 10 μM, 700 μM ATP

hP2X7 inhibition in YO-PRO 1 dye uptake, SAR [1]: reduced antagonist effects
Structure (SMILES): CC(C)NC(=O)NC(Cc1ccc2c(c1)OCO2)Cc1ccc2c(c1)OCO2 [Compound 2a]

hP2X7 inhibition in YO-PRO 1 dye uptake, SAR [1]: diminished hP2X7 inhibition
Structure (SMILES): COc1ccc(CC(Cc2ccc3c(c2)OCO3)NC(=O)Nc2ccc(C)c(F)c2)cc1 (stereo not shown) [Compound 2b]

reduction of hP2X7 activity [1]: 80%
Structure (SMILES): O=C(Nc1ccc(F)cc1F)NC(Cc1ccc2c(c1)OCO2)Cc1ccc2c(c1)OCO2 [Compound 2c]

hP2X7 inhibition in YO-PRO 1 dye uptake, SAR [1]: reduced antagonist effects
Structure (SMILES): CNC(=O)NC(Cc1ccc(F)cc1)Cc1ccc2c(c1)OCO2 (stereo not shown) [Compound 2d]

hP2X7 inhibition in YO-PRO 1 dye uptake, SAR [1]: diminished hP2X7 inhibition
Structure (SMILES): CCOC(=O)c1ccccc1NC(=O)NC(Cc1ccc(OC)cc1)Cc1ccc2c(c1)OCO2 (stereo not shown) [Compound 2e]

hP2X7 inhibition in YO-PRO 1 dye uptake, SAR [1]: reduced activity compared to 2
Structure (SMILES): O=C(NCCc1ccc2c(c1)OCO2)NCCN1CCN(c2ccccc2)CC1 [Compound 2f]

reduction of hP2X7 activity [1]: 80%
Structure (SMILES): CCOc1ccc(NC(=O)NC(Cc2ccc(F)cc2)Cc2ccc3c(c2)OCO3)cc1 (stereo not shown) [Compound 2h]

hP2X7 inhibition in YO-PRO 1 dye uptake, SAR [1]: reduced activity compared to 2
Structure (SMILES): COc1ccc(CCNC(=O)Nc2ccc3c(c2)OCO3)cc1OC [Compound 2j]

hP2X7 inhibition in YO-PRO 1 dye uptake, SAR [1]: still reduced receptor activation
reduction of hP2X7 activity [1]: 80%
Structure (SMILES): COc1ccc(CC(Cc2ccc3c(c2)OCO3)NC(=O)c2ccc(NC(C)=O)cc2)cc1 (stereo not shown) [Compound 2k]
activity in MPR assay [2]: diminished activity relative to the other structural analogues

activity in YO-PRO 1 dye uptake screen [3]: no significant activity
inhibition at 10 µM [4]: ~90%
activity in MPR screen, hP2X7-induced membrane depolarization [5]: statistically inhibited
Structure (SMILES): O=C(NCc1ccc(Oc2ccc(F)cc2)cc1)c1ccccc1CN1C(=O)CNC1=O [Compound 4]

activity in YO-PRO 1 dye uptake screen [3]: antagonist activity
reduction of P2X7 activation [3]: at least 50%
IC50 [1]: 20.9 µM
activity in MPR screen, hP2X7-induced membrane depolarization [5]: did not also block
Structure (SMILES): COc1cccc(NC(=O)CSc2ccccc2C(=O)NCc2cn3ccccc3n2)c1 [Compound 6]

activity in YO-PRO 1 dye uptake screen [3]: antagonist activity
reduction of P2X7 activation [3]: at least 50%
IC50 [1]: 4.23 µM
activity in MPR screen, hP2X7-induced membrane depolarization [5]: did not also block
Structure (SMILES): Cc1nn(-c2ccccc2)c(C)c1NC(=O)NCc1ccccc1Cn1cccn1 [Compound 7]

activity in YO-PRO 1 dye uptake screen [3]: antagonist activity
reduction of P2X7 activation [3]: at least 50%
IC50 [1]: 4.07 µM
activity in MPR screen, hP2X7-induced membrane depolarization [5]: did not also block
Structure (SMILES): O=C(NCc1ccccc1)NC1(C(=O)NCc2ccccc2Cn2ccnc2)CCCC1 [Compound 8]

hP2X7 inhibition in YO-PRO 1 dye uptake, SAR [1]: reduced activity
Structure (SMILES): CN(C)C(=O)Cn1cc(NC(=O)c2cnc(-c3ccc4c(c3)OCO4)s2)cn1 [Compound 9a]

hP2X7 inhibition in YO-PRO 1 dye uptake, SAR [1]: compromised activity
Structure (SMILES): O=C(COC(=O)c1cccnc1SCC(=O)Nc1ccc2c(c1)OCO2)NCc1ccco1 [Compound 9c]

hP2X7 inhibition in YO-PRO 1 dye uptake, SAR [1]: activity comparable to that of 9
Structure (SMILES): O=C(CSc1ncccc1C(=O)Nc1ccc(-n2cnnn2)cc1)Nc1ccc2c(c1)OCO2 [Compound 9d]

Structure (SMILES): O=C(CSc1ncccc1C(=O)N1CCN(c2ccccc2F)CC1)Nc1ccc2c(c1)OCO2 [Compound 9e]
hP2X7 inhibition in YO-PRO 1 dye uptake, SAR [1]: activity comparable to that of 9; also recorded: enhanced target inhibition

Structure (SMILES): CN(C)S(=O)(=O)c1cccc(COC(=O)c2cccnc2SCC(=O)Nc2ccc3c(c2)OCO3)c1 [Compound 9h]
hP2X7 inhibition in YO-PRO 1 dye uptake, SAR [1]: activity comparable to that of 9; also recorded: enhanced target inhibition
